From patent US9272990B2, “Lysophosphatidic acid receptor antagonists and their use in the treatment fibrosis” (AMIRA PHARMACEUTICALS, INC., priority 2010, dated 2016)
Blank lines part the entries; values can stand above or below the compound they belong to.

How the values were obtained:
[1] = target: T1, Human LPA1 (Homo sapiens, UniProt Q92633); assay: LPA1 calcium flux assay; assay type: cell-based; conditions: CHO cells expressing human LPA1, stimulated with 10 nM LPA; read-out: LPA1 Ca^2+ flux
T1 construct: the full-length cDNA for human LPA1 was obtained by PCR of the reverse transcription reaction; expressed in transfected cells
T1 sequence (Q92633 whole entry): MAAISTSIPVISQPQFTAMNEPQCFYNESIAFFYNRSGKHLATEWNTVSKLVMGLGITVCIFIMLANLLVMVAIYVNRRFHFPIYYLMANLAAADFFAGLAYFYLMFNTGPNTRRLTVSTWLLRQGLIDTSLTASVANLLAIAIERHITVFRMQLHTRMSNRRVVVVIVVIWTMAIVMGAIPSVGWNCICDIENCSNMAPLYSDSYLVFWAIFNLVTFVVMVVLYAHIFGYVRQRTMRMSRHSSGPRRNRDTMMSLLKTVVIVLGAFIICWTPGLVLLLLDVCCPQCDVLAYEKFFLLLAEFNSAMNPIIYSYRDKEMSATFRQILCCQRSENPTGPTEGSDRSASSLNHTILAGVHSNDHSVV
Protocol: A 1.1 kb cDNA encoding the human LPA1 receptor was cloned from human lung. Human lung RNA (Clontech Laboratories, Inc. USA) was reverse transcribed using the RETROSCRIPT® kit (Ambion, Inc.) and the full-length cDNA for human LPA1 was obtained by PCR of the reverse transcription reaction. The nucleotide sequence of the cloned human LPA1 was determined by sequencing and confirmed to be identical to the published human LPA1 sequence (An et al., Biochem. Biophys. Res. Commun. 231:619 (1997). The cDNA was cloned into the pcDNA5/FRT expression plasmid and transfected in CHO cells using Lipofectamine 2000 (Invitrogen Corp., USA). Clones stably expressing human LPA1 were selected using hygromycin and identified as cells that show Ca-influx in response to LPA.
Human LPA1 or LPA3 expressing CHO cells are seeded at 20,000-45,000 cells per well in a 96-well poly-D-lysine coated plate one or two days before the assay. Prior to the assay, the cells are washed once with PBS and then cultured in serum-free media overnight. On the day of the assay, a calcium indicator dye (Calcium 4, Molecular Devices) in assay buffer (HBSS with Ca^2+ and Mg^2+ and containing 20 mM Hepes and 0.3% fatty-acid free human serum albumin) is added to each well and incubation continued for 1 hour at 37° C. 10 μl of test compounds in 2.5% DMSO are added to the cells and incubation continued at room temperature for 30 minutes. Cells are the stimulated by the addition of 10 nM LPA and intracellular Ca^2+ measured using the FLEXSTATION® 3 (Molecular Devices). IC50s are determined using Graphpad prism analysis of drug titration curves.

[2] = tested on: mouse bleomycin lung fibrosis model; assay: Bleomycin-induced lung fibrosis model in mice; assay type: in vivo
From the text: Female C57Bl/6 mice (Harlan, 25-30 g) are housed 4 per cage, given free access to food and water and allowed to acclimate for at least 7 days prior to test initiation. After the habituation phase, mice are lightly anesthetized with isoflurane (5% in 100% O2) and administered with bleomycin sulfate (0.01-5 U/kg, Henry Schein) via intratracheal instillation (Cuzzocrea, S et al., Am. J. Physiol. Lung Cell Mol. Physiol., 292(5):L1095-104 (May 2007) (Epub Jan. 12, 2007). Mice are returned to their cages and monitored daily for the duration of the experiment. Test compound or vehicle is delivered po, ip or sc daily. The route and frequency of dosing is based on previously determined pharmacokinetic properties. All animals are sacrificed using inhaled isoflurane 3, 7, 14, 21 or 28 days after bleomycin instillation. Following sacrifice, mice are intubated with a 20 gauge angiocatheter attached to a 1 ml syringe. Lungs are lavaged with saline to obtain bronchoalveolar lavage fluid (BALF) and then removed and fixed in 10% neutral buffered formalin for subsequent histopathological analysis. BALF is centrifuged for 10 min at 800×g to pellet the cells and the cell supernatant removed and frozen at −80° C. for subsequent protein analysis using the DC protein assay kit (Biorad, Hercules, Calif.) and soluble collagen analysis using Sircol (Biocolor Ltd, UK). BALF is analyzed for concentrations of inflammatory, pro-fibrotic and tissue injury biomarkers including transforming growth factor β1, hyaluronic acid, tissue inhibitor of metalloproteinase-1, matrix matelloproteinase-7, connective tissue growth factor and lactate dehydrogenase activity, using commercially available ELISA. The cell pellet is re-suspended in PBS. Total cell counts are then obtained using a HEMAVET® hematology system (Drew Scientific, Wayne, Pa.) and differential cells counts are determined using Shandon cytospin (Thermo Scientific, Waltham, Mass.). Lung tissue is stained using hematoxylin and eosin (H&E) and trichrome and lung fibrosis is determined by semiquantitative histopathological scoring (Ashcroft T. et al., J. Clin. Path., 41(4):467-470 (1988)) using light microscopy (10× magnification) and quantitative, computer-assisted densitometry of collagen in lung tissue sections using light microscopy. The data are plotted using Graphpad prism and statistical differences between groups determined

[3] = target: T2, LPA3 receptor (Mus musculus, UniProt Q9EQ31); conditions: in the presence of the agonist; cited from earlier work
T2 construct: host or cells: mouse kidney in vivo
T2 sequence (Q9EQ31 1-354): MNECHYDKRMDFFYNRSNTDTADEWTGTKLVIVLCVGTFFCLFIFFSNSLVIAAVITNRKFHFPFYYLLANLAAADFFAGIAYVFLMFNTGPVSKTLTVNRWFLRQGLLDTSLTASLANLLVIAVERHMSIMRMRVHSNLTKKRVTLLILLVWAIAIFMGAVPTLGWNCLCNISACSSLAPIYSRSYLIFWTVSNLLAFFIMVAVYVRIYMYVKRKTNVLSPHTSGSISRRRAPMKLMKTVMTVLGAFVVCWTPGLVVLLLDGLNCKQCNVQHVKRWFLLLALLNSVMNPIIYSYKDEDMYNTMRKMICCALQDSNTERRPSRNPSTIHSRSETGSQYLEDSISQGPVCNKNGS

[4] = tested on: human foetal lung fibroblasts; conditions: cited from earlier work
[5] = tested on: UUO mice; conditions: compared with LPA1 (−/−) mice; cited from earlier work
[6] = tested on: mouse epithelial renal cell line, MCT; conditions: co-treatment with LPA, MCT cells; cited from earlier work
[7] = tested on: pancreatic cancer cell lines; conditions: cited from earlier work
[8] = tested on: highly peritoneal metastatic pancreatic cancer cell line; conditions: cited from earlier work
[9] = tested on: bone metastasis; conditions: in vivo; cited from earlier work
[10] = tested on: nerve-injured mice; conditions: pretreatment; cited from earlier work
[11] = multiple timepoints following intratracheal bleomycin instillation

Structure (SMILES): CCCCCCCC/C=C\CCCCCCCC(=O)OC[C@@H](COP(O)(O)=S)OC [OMPT]
reduction of severity of injury by blockade of the LPA3 receptor [3]: reversed

Structure (SMILES): Cc1noc(-c2ccc(CSCCC(=O)O)cc2)c1NC(=O)OC(C)c1ccccc1Cl (centres unmarked) [Ki16425]
chemotaxis of human foetal lung fibroblasts induced by BAL from IPF patients [4]: blocked | increased fibroblast chemotactic activity in bronchoalveolar lavage samples of human subjects with IPF [4]: inhibited | development of renal fibrosis [5]: closely resembled the LPA1 (−/−) mice | LPA-induced expression of the profibrotic cytokine CTGF [6]: almost completely suppressed | in vitro migration in response to LPA and peritoneal fluid (ascites) from pancreatic cancer patients [7]: effectively blocked | LPA-induced and ascites-induced invasion activity [8]: blocked | metastasis to bone [9]: inhibit metastasis to bone

Structure (SMILES): C[C@@H](OC(=O)Nc1cnccc1-c1ccc(-c2ccc(C3(C(=O)O)CC3)cc2)cc1)c1ccccc1 [Compound 1-3, 1-{4′-[3-((R)-1-phenyl-ethoxycarbonylamino)-pyridin-4-yl]-biphenyl-4-yl}-cyclopropanecarboxylic acid]
IC50 [1]: 0.3 to 1 µM

Structure (SMILES): C[C@@H](N)[C@H]1CC[C@H](C(=O)Nc2ccncc2)CC1 [Compound Y-27632]
allodynia and hyperalgesia [10]: completely abolished

Structure (SMILES): O=C(O)CC1(c2ccc(-c3ccc(-c4ccncc4C(O)CCCc4ccccc4)cc3)cc2)CC1 (centres unmarked) [Compound 1-8, (1-{4′-[3-(1-hydroxy-4-phenyl-butyl)-pyridin-4-yl]-biphenyl-4-yl}-cyclopropyl)-acetic acid]
IC50 [1]: 0.3 to 1 µM

Structure (SMILES): O=C(O)C1(c2ccc(-c3ccc(-c4sccc4C(O)CCCc4ccccc4)cc3)cc2)CC1 (single isomer, unassigned) [Compound 1-26, 1-{4′-[3-(1-hydroxy-4-phenyl-butyl)-thiophen-2-yl]-biphenyl-4-yl}-cyclopropanecarboxylic acid]
IC50 [1]: < 0.3 µM

Structure (SMILES): O=C(O)C1(c2ccc(-c3ccc(-c4cscc4C(O)CCCc4ccccc4)cc3)cc2)CC1 (centres unmarked) [Compound 1-15, 1-{4′-[4-(1-hydroxy-4-phenyl-butyl)-thiophen-3-yl]-biphenyl-4-yl}-cyclopropanecarboxylic acid]
IC50 [1]: < 0.3 µM

Structure (SMILES): Cn1ncc(-c2ccc(-c3ccc(C4(C(=O)O)CC4)cc3)cc2)c1NCc1cnc(-c2ccccc2)s1 [Compound 1-25, 1-(4′-{1-methyl-5-[(2-phenyl-thiazol-5-ylmethyl)-amino]-1H-pyrazol-4-yl}-biphenyl-4-yl)-cyclopropanecarboxylic acid]
IC50 [1]: 1 to 10 µM

More lines, main results first:

IC50 [1]: < 0.3 µM
Structure (SMILES): CC(OC(=O)Nc1ccncc1-c1ccc(-c2ccc(C3(C(=O)O)CC3)cc2)cc1)c1ccccc1Cl (centres unmarked) [Compound 1-1, 1-(4′-{4-[1-(2-chloro-phenyl)-ethoxycarbonylamino]-pyridin-3-yl}-biphenyl-4-yl)-cyclopropanecarboxylic acid]
BALF MMP-7 ([2]; acute setting (3 day)): reduced | BALF TGFβ1 ([2]; acute setting (3 day)): reduced | BALF collagen ([2]; acute setting (3 day)): reduced | BALF hyaluronan ([2]; acute setting (3 day)): reduced | BALF inflammatory cell influx ([2]; acute setting (3 day)): reduced | BALF protein ([2]; acute setting (3 day)): reduced | fibrosis [2, 11]: reduced | inflammation [2, 11]: reduced | lung injury [2, 11]: reduced | vascular leakage [2, 11]: reduced

IC50 [1]: < 0.3 µM
Structure (SMILES): CCn1ncc(-c2ccc(-c3ccc(C4(C(=O)O)CC4)cc3)cc2)c1C(O)CCCc1ccccc1 (centres unmarked) [Compound 1-23, 1-{4′-[1-ethyl-5-(1-hydroxy-4-phenyl-butyl)-1H-pyrazol-4-yl]-biphenyl-4-yl}-cyclopropanecarboxylic acid]

IC50 [1]: < 0.3 µM
Structure (SMILES): Cn1ncc(-c2ccc(-c3ccc(C4(C(=O)O)CC4)cc3)cc2)c1Nc1cccc(-c2ccccc2)n1 [Compound 1-20, 1-{4′-[1-methyl-5-(6-phenyl-pyridin-2-ylamino)-1H-pyrazol-4-yl]-biphenyl-4-yl}-cyclopropanecarboxylic acid]

IC50 [1]: < 0.3 µM
Structure (SMILES): O=C(O)C1(c2ccc(-c3ccc(-c4sccc4C(O)CCCc4ccccc4)cc3)cc2)CC1 (centres unmarked) [Compound 1-18, 1-{4′-[3-(1-hydroxy-4-phenyl-butyl)-thiophen-2-yl]-biphenyl-4-yl}-cyclopropanecarboxylic acid]

IC50 [1]: < 0.3 µM
Structure (SMILES): O=C(O)CC1(c2ccc(-c3ccc(-c4sccc4C(O)CCCc4ccccc4)cc3)cc2)CC1 (centres unmarked) [Compound 1-19, (1-{4′-[3-(1-hydroxy-4-phenyl-butyl)-thiophen-2-yl]-biphenyl-4-yl}-cyclopropyl)-acetic acid]

IC50 [1]: < 0.3 µM
Structure (SMILES): Cn1ncc(-c2ccc(-c3ccc(C4(C(=O)O)CC4)cc3)cc2)c1C(O)CCCc1ccccc1 (centres unmarked) [Compound 1-11, 1-{4′-[5-(1-hydroxy-4-phenyl-butyl)-1-methyl-1H-pyrazol-4-yl]-biphenyl-4-yl}-cyclopropanecarboxylic acid]

IC50 [1]: < 0.3 µM
Structure (SMILES): O=C(O)CC1(c2ccc(-c3ccc(-c4cscc4C(O)CCCc4ccccc4)cc3)cc2)CC1 (centres unmarked) [Compound 1-14, (1-{4′-[4-(1-hydroxy-4-phenyl-butyl)-thiophen-3-yl]-biphenyl-4-yl}-cyclopropyl)-acetic acid]

IC50 [1]: < 0.3 µM
Structure (SMILES): C[C@@H](OC(=O)Nc1ccccc1-c1ccc(-c2ccc(C3(C(=O)O)CC3)cc2)cc1)c1ccccc1 [Compound 1-2, 1-[2″-((R)-1-phenyl-ethoxycarbonylamino)-[1,1′;4′,1″]terphenyl-4-yl]-cyclopropanecarboxylic acid]
